Where “and” joins values, the source holds several entries; their conditions need not be identical. Equal entries are not always repeated. Inconclusive results and toxic doses are left out. Rule as the data show it: active = T/C of 150% or more; inactive = T/C below 125%.
Test system: L1210 leukemia ip in BDF1 mice, survival T/C
Assay: NCI In Vivo Anticancer Drug Screen. Data for tumor model L1210 Leukemia (intraperitoneal) in B6D2F1 (BDF1) mice
Conditions: endpoint: mean survival time, higher = longer survival
Outline: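 Tumor cells were implanted, animals were treated, and survival was followed. The result divides the treated measurement by the vehicle-control measurement.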

[1] = dose: 100.0 mg/kg/injection, schedule: Q01DX001 (ip), vehicle: other
[2] = dose: 200.0 mg/kg/injection, schedule: Q01DX001 (ip), vehicle: other
[3] = dose: 100.0 mg/kg/injection, schedule: Q01DX009 (ip), vehicle: saline
[4] = dose: 100.0 mg/kg/injection, schedule: Q04DX003 (ip), vehicle: saline
[5] = dose: 200.0 mg/kg/injection, schedule: Q01DX009 (ip), vehicle: saline
[6] = dose: 200.0 mg/kg/injection, schedule: Q04DX003 (ip), vehicle: saline
[7] = dose: 100.0 mg/kg/injection, schedule: Q04DX003 (ip), vehicle: Klucel (hydroxypropylcellulose) (HPC)
[8] = dose: 200.0 mg/kg/injection, schedule: Q04DX003 (ip), vehicle: Klucel (hydroxypropylcellulose) (HPC)
[9] = dose: 400.0 mg/kg/injection, schedule: Q04DX003 (ip), vehicle: Klucel (hydroxypropylcellulose) (HPC)
[10] = dose: 100.0 mg/kg/injection, schedule: Q01DX001 (ip), vehicle: saline
[11] = dose: 200.0 mg/kg/injection, schedule: Q01DX001 (ip), vehicle: saline
[12] = dose: 100.0 mg/kg/injection, schedule: Q01DX009 (ip), vehicle: Klucel (hydroxypropylcellulose) (HPC)
[13] = dose: 200.0 mg/kg/injection, schedule: Q01DX009 (ip), vehicle: Klucel (hydroxypropylcellulose) (HPC)
[14] = dose: 400.0 mg/kg/injection, schedule: Q01DX009 (ip), vehicle: Klucel (hydroxypropylcellulose) (HPC)
[15] = dose: 50.0 mg/kg/injection, schedule: Q01DX001 (ip), vehicle: Klucel (hydroxypropylcellulose) (HPC)
[16] = dose: 100.0 mg/kg/injection, schedule: Q01DX001 (ip), vehicle: Klucel (hydroxypropylcellulose) (HPC)
[17] = dose: 200.0 mg/kg/injection, schedule: Q01DX001 (ip), vehicle: Klucel (hydroxypropylcellulose) (HPC)
[18] = dose: 400.0 mg/kg/injection, schedule: Q01DX001 (ip), vehicle: Klucel (hydroxypropylcellulose) (HPC)
[19] = dose: 100.0 mg/kg/injection, schedule: Q01DX001 (ip), vehicle: carboxymethylcellulose (CMC)
[20] = dose: 200.0 mg/kg/injection, schedule: Q01DX001 (ip), vehicle: carboxymethylcellulose (CMC)
[21] = dose: 400.0 mg/kg/injection, schedule: Q01DX001 (ip), vehicle: carboxymethylcellulose (CMC)

Measured: T/C

C1=Cc2ccccc2/C1=C/c1ccccc1
inactive: [1] 97 % of control | [2] 95 % of control | dose: 400.0 mg/kg/injection, schedule: Q01DX001 (ip), vehicle: other 92 % of control

CCCCOCCOCCOCCO
inactive: [3] 98 % of control | [4] 98 % of control | [5] 98 % of control | [6] 98 % of control | dose: 400.0 mg/kg/injection, schedule: Q01DX009 (ip), vehicle: saline 102 % of control | dose: 400.0 mg/kg/injection, schedule: Q04DX003 (ip), vehicle: saline 97 % of control

CCOC(=O)C1OC(n2cnc3c(N)ncnc32)C(O)C1O (stereo not given)
inactive: dose: 100.0 mg/kg/injection, schedule: Q01DX005 (ip), vehicle: saline 98 % of control | dose: 200.0 mg/kg/injection, schedule: Q01DX005 (ip), vehicle: saline 97 % of control

CC(C)=CCNC(=O)NS(=O)(=O)c1ccc(Cl)cc1
inactive: [7] 103 % of control | [8] 103 % of control | [9] 100 % of control

O=C(O)C(=O)c1ccc(O)cc1O
inactive: [10] 111 % of control | [11] 103 % of control

COc1ccc(OC)c2c(C(C)=O)c[nH]c12
inactive: dose: 12.5 mg/kg/injection, schedule: Q04DX002 (ip), vehicle: Klucel (hydroxypropylcellulose) (HPC) 118 % of control | dose: 25.0 mg/kg/injection, schedule: Q04DX002 (ip), vehicle: Klucel (hydroxypropylcellulose) (HPC) 112 % of control | dose: 50.0 mg/kg/injection, schedule: Q04DX002 (ip), vehicle: Klucel (hydroxypropylcellulose) (HPC) 93 % of control

CC(=O)c1cccc(NC(=O)CCCCCCCCC(=O)Nc2cccc(C(C)=O)c2)c1
inactive: [12] 96 % of control | [13] 91 % of control | [14] 94 % of control

O=C(NCCCl)NC1CCc2ccccc21 (stereo not given)
inactive: dose: 20.0 mg/kg/injection, schedule: Q04DX003 (ip), vehicle: Klucel (hydroxypropylcellulose) (HPC) 92 % of control | dose: 40.0 mg/kg/injection, schedule: Q04DX003 (ip), vehicle: Klucel (hydroxypropylcellulose) (HPC) 92 % of control | dose: 80.0 mg/kg/injection, schedule: Q04DX003 (ip), vehicle: Klucel (hydroxypropylcellulose) (HPC) 91 % of control | [7] 95 % of control | [8] 106 % of control

CC(=O)c1sccc1C
inactive: dose: 6.25 mg/kg/injection, schedule: Q01DX009 (ip), vehicle: Klucel (hydroxypropylcellulose) (HPC) 93 % of control | dose: 12.5 mg/kg/injection, schedule: Q01DX009 (ip), vehicle: Klucel (hydroxypropylcellulose) (HPC) 92 % of control | dose: 12.5 mg/kg/injection, schedule: Q04DX003 (ip), vehicle: Klucel (hydroxypropylcellulose) (HPC) 101 % of control | dose: 25.0 mg/kg/injection, schedule: Q01DX009 (ip), vehicle: Klucel (hydroxypropylcellulose) (HPC) 90 % of control | dose: 25.0 mg/kg/injection, schedule: Q04DX003 (ip), vehicle: Klucel (hydroxypropylcellulose) (HPC) 92 % of control

CN1CCN(CCCN2C(c3ccccc3)C2c2ccccc2)CC1 (stereo not given)
inactive: dose: 50.0 mg/kg/injection, schedule: Q04DX003 (ip), vehicle: saline 101 % of control | [4] 93 % of control | [6] 93 % of control

NC(=O)C(F)(F)C(F)(F)C(F)(F)F
inactive: [15] 97 % of control | [16] 97 % of control | [17] 103 % of control

O=[N+]([O-])c1cccc(S(=O)(=O)NNc2cc(C(F)(F)F)ccc2Cl)c1
inactive: [16] 93 % of control | [7] 92 % of control | [17] 94 % of control | [8] 87 % of control | [18] 98 % of control | [9] 100 % of control

CCOC(=O)C1C(O)CC2COC(=O)C2C1c1ccc(OC(C)=O)cc1 (stereo not given)
inactive: [1] 100 % of control | [2] 95 % of control

COc1ccc(-n2c(=O)c(N=Nc3ccc(Cl)cc3)c(O)n(-c3ccccc3Cl)c2=S)cc1
inactive: [15] 106 % of control | [16] 97 % of control | [17] 95 % of control

OC(Cc1ccccc1)(c1ccccc1)C(O)(Cc1ccccc1)c1ccccc1 (stereo not given)
inactive: dose: 50.0 mg/kg/injection, schedule: Q01DX001 (ip), vehicle: saline 94 % of control | [10] 94 % of control | [11] 94 % of control | dose: 400.0 mg/kg/injection, schedule: Q01DX001 (ip), vehicle: saline 94 % of control

O=C(Nc1ccc(Cl)cc1)Nc1cccc2nsnc12
inactive: dose: 100.0 mg/kg/injection, schedule: Q04DX002 (ip), vehicle: saline with Tween-80 97 % of control | dose: 200.0 mg/kg/injection, schedule: Q04DX002 (ip), vehicle: saline with Tween-80 93 % of control | dose: 400.0 mg/kg/injection, schedule: Q04DX002 (ip), vehicle: saline with Tween-80 90 % of control

CCCCCCCCCCCCCOc1ccc(Sc2ccc([N+](=O)[O-])cc2)cc1
inactive: [9] 88 % of control

Cc1cccc(C2CCCCC2OS(C)(=O)=O)c1 (stereo not given)
inactive: [19] 101 % of control | [20] 108 % of control | [21] 95 % of control

N#CCCC#N (tested in a mixture with another compound)
inactive: dose: 100.0 mg/kg/injection, schedule: Q04DX003 (ip), vehicle: saline with Tween-80 96 % of control | dose: 200.0 mg/kg/injection, schedule: Q04DX003 (ip), vehicle: saline with Tween-80 102 % of control

Cc1ccc(S(=O)(=O)Nc2ccccc2C(=O)c2ccc(C)c(C)c2)cc1
inactive: [19] 100 % of control

O=C(NNC(=O)c1ccc([N+](=O)[O-])cc1)c1ccccc1
inactive: [12] 96 % of control | [7] 105 % of control | [13] 101 % of control | [8] 103 % of control | [14] 94 % of control | [9] 100 % of control

CCCCN=C=NCCCC
inactive: dose: 0.05 mg/kg/injection, schedule: Q01DX Z (ip), vehicle: saline 96 % of control | dose: 0.08 mg/kg/injection, schedule: Q01DX Z (ip), vehicle: saline 90 % of control | dose: 0.12 mg/kg/injection, schedule: Q01DX Z (ip), vehicle: saline 104 % of control | [16] 93 % of control | [17] 93 % of control

COC(=O)/C(O)=C/C(N)=O.COC(=O)/C(O)=C/C(N)=O.[Cu]
inactive: dose: 9.37 mg/kg/injection, schedule: Q01DX001 (ip), vehicle: carboxymethylcellulose (CMC) 89 % of control | dose: 18.75 mg/kg/injection, schedule: Q01DX001 (ip), vehicle: carboxymethylcellulose (CMC) 87 % of control | dose: 37.5 mg/kg/injection, schedule: Q01DX001 (ip), vehicle: carboxymethylcellulose (CMC) 96 % of control

CC(CC(=O)c1ccc(F)cc1)N1CCN(c2ccccc2)CC1 (stereo not given)
inactive: [19] 103 % of control | [20] 90 % of control | [21] 90 % of control

Cc1ncc(C(O)c2ccccc2)n1Cc1ccccc1 (stereo not given)
inactive: [16] 94 % of control | [12] 93 % of control and 107 % of control | [7] 106 % of control | [17] 100 % of control | [13] 93 % of control and 103 % of control | [8] 97 % of control | [18] 98 % of control | [14] 104 % of control and 89 % of control | [9] 99 % of control

O=C(C[n+]1ccc2ccccc2c1)c1ccc2ccccc2c1
inactive: dose: 6.25 mg/kg/injection, schedule: Q01DX009 (ip), vehicle: saline with Tween-80 95 % of control | dose: 12.5 mg/kg/injection, schedule: Q01DX009 (ip), vehicle: saline with Tween-80 87 % of control | dose: 25.0 mg/kg/injection, schedule: Q01DX009 (ip), vehicle: saline with Tween-80 90 % of control

CCCCC(CC)COC(=O)CC(CC(=O)OCC(CC)CCCC)C(=O)OCC(CC)CCCC (stereo not given)
inactive: dose: 50.0 mg/kg/injection, schedule: Q01DX009 (ip), vehicle: saline 111 % of control | [3] 97 % of control | [5] 92 % of control

O=C(O)C(Br)CO (stereo not given) (tested in a mixture with another compound)
inactive: dose: 100.0 mg/kg/injection, schedule: Q01DX001 (ip), vehicle: acetone 93 % of control | dose: 200.0 mg/kg/injection, schedule: Q01DX001 (ip), vehicle: acetone 95 % of control

COc1ccc(C=Nc2cc([N+](=O)[O-])ccc2O)cc1
inactive: [19] 98 % of control | [20] 98 % of control | [21] 94 % of control
